Source: patent US12447242B2, “Hemostatic devices and methods of use” (MEDTRONIC INC., priority 2016, dated 2025)
One block for each compound: values may come before it.

Columns and labels:
myofibroblast formation = conditions: Ajmal et al. (2003); cited from earlier work
[1] = stability of rifampin and minocycline in PBS with and without tranexamic acid (Example 14); assay type: physicochemical
[2] = in vitro elution of rifampin and minocycline from p22-27.5 polymers with TXA in release media (Example 15); assay type: physicochemical; conditions: PBS pH 7.4 without or with TXA (0.05 mg/mL, 5 mg/mL) in the release media, over 25 hours
[3] = time to reach plasma concentrations; assay type: in vivo; conditions: given preoperatively
blood [4] = test: time to induce blood clotting in vitro in the presence of TYRX (Example 17); assay type: biochemical; set-up: dose or concentration left out as unconfirmed; conditions: higher amounts of TXA
Procedure: Tests were conducted to compare the time required to induce blood clotting in vitro when different amounts of hemostatic agent is administered in the presence of TYRX (degradable mesh coated with P22-27.5 containing rifampin and minocycline), as shown in FIG. 24.

blood [5] = test: time to induce blood clotting in vitro, different hemostatic agents (Example 18); assay type: biochemical; conditions: 1.2 mg of TXA alone
Procedure: Tests were conducted to compare the time required for different hemostatic agents to induce blood clotting in vitro versus the time required to induce blood clotting in vitro when no hemostatic agent is administered. In particular, the time required to induce blood clotting was plotted for blood alone, TYRX, Surgicel, TYRX with 1.6 mg of TXA, 1.2 mg of TXA alone, and TYRX with 200 mg of TXA. In this example, TYRX refers to a Glycoprene mesh that is coated with P22-27.5 (a polymer in the P22-X family) containing Rifampin and Minocycline.

Compound: O=S(=O)([O-])CCS.[Na+] [MESNA, sodium 2-mercaptoethane sulfonate]
myofibroblast formation (myofibroblast formation): diminish myofibroblast formation

percentage area of rifampin, mixtures with versus without tranexamic acid ([1]; rifampin and minocycline in PBS, regardless of the temperature (RT or 37° C.)): substantially the same
elution rate from p22-27.5 polymers [2]: not affected
Compound: CO[C@H]1/C=C/O[C@@]2(C)Oc3c(C)c(O)c4c(O)c(c(/C=N/N5CCN(C)CC5)c(O)c4c3C2=O)NC(=O)/C(C)=C\C=C\[C@H](C)[C@H](O)[C@@H](C)[C@@H](O)[C@@H](C)[C@H](OC(C)=O)[C@@H]1C [rifampin]

time to reach plasma concentrations [3]: 5 to 15 min
effect on the stability of rifampin and minocycline ([1]; PBS, RT and 37° C.): does not negatively affect
Compound: NC[C@H]1CC[C@H](C(=O)O)CC1 [tranexamic acid]
clotting time (blood [4]): increased
time to induce blood clotting in vitro (blood [5]): about 19 minutes
